Active and inactive are the calls of the source. The rule behind the calls is not given here.
Tests used:
[1] = target: T1, Programmed cell death protein 4 (Homo sapiens) (UniProt Q53EL6); experiment: Inhibition of PDCD4 in human HeLa cells tranfected with pCI-neo-luciferase-PDCD4 3'-UTR plasmid assessed as fold change in luciferase signal by measuring relative luciferase unit by luciferase reporter assay; assay type: cell-based
T1 sequence (whole entry): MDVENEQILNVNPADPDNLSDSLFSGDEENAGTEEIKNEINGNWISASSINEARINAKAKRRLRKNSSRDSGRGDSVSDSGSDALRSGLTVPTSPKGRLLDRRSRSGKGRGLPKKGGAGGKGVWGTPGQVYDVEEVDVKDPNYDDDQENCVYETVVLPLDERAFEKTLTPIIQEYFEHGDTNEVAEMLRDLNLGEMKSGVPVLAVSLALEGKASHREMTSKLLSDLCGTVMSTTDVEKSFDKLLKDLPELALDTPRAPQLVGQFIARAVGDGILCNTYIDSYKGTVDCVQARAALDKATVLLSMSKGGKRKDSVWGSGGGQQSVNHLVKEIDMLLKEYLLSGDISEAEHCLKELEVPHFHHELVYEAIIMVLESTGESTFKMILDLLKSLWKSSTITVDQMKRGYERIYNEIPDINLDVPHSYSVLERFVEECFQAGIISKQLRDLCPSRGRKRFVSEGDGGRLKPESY

[2] = system: HeLa; experiment: Inhibition of microRNA in human HeLa cells transfected with pCI-neo-luciferase-miR-21 plasmid assessed as change in luciferase signal by measuring relative luciferase unit by luciferase reporter assay; assay type: cell-based
[3] = Inhibition of microRNA in human HeLa cells transfected with pCI-neo-luciferase-miR-21 plasmid assessed as change in luciferase signal incubated for 24 hrs by luciferase reporter assay; assay type: cell-based
[4] = system: SK-HEP1; experiment: Antiproliferative activity against human SK-HEP1 cells assessed as inhibition of cell growth incubated for 72 hrs by CellTiter-luminescence assay; assay type: functional, cell-based
[5] = system: HCCLM3; experiment: Antiproliferative activity against human HCCLM3 cells assessed as inhibition of cell growth incubated for 72 hrs by CellTiter-luminescence assay; assay type: functional, cell-based
[6] = system: SK-HEP1; experiment: Inhibition of cell migration in human SK-HEP1 cells at 10 to 25 uM measured after 24 hrs by crystal violet staining based transwell assay; assay type: functional; conditions: dose 10-25 µM

Compound: COC(=O)[C@@H](C(C)C)N(Cc1nc(-c2cc(OC)c(OC)c(OC)c2)oc1C)S(=O)(=O)c1ccc(OC)cc1
- RLU [1]: 1.03
- RLU [2]: 1.08

Compound: COC(=O)[C@@H](C(C)C)N(Cc1nc(-c2ccc(Cl)cc2)oc1C)S(=O)(=O)c1ccc(OC)cc1
- RLU [1]: 0.93
- RLU [2]: 1.12

Compound: CCOC(=O)c1nc(-c2cc(OC)c(OC)c(OC)c2)oc1C
- RLU [1]: 1.09
- RLU [2]: 1.13

Compound: Cc1oc(-c2ccc([N+](=O)[O-])cc2)nc1CCl
- RLU [1]: 1.11
- RLU [2]: 1.2

Compound: CCOC(=O)c1nc(-c2ccc(Br)cc2)oc1C
- EC50 [3]: 5.98 µM

Compound: COC(=O)[C@@H](C(C)C)N(Cc1nc(-c2ccc(Cl)cc2)oc1C)S(=O)(=O)c1ccc(C)cc1
- RLU [1]: 1.08
- RLU [2]: 1.03

Compound: COC(=O)[C@H](NS(=O)(=O)c1ccc(OC)cc1)C(C)C
- RLU [1]: 1.06
- RLU [2]: 1.02

Compound: COc1ccc(S(=O)(=O)N(Cc2nc(-c3ccc(OC)c(OC)c3)oc2C)[C@@H](C(=O)NO)C(C)C)cc1
- RLU [1]: 0.86
- RLU [2]: 1.02

Compound: COC(=O)[C@@H](C(C)C)N(Cc1nc(-c2ccc([N+](=O)[O-])cc2)oc1C)S(=O)(=O)c1ccc(OC)cc1
- RLU [1]: 0.96
- RLU [2]: 0.98

Compound: COc1ccc(-c2nc(CN([C@@H](C(=O)O)C(C)C)S(=O)(=O)c3ccc(OC)cc3)c(C)o2)cc1
- RLU [1]: 1
- RLU [2]: 1.04

Compound: COc1ccc(S(=O)(=O)N(Cc2nc(-c3ccc(OC)c(OC)c3)oc2C)[C@@H](C(=O)O)C(C)C)cc1
- RLU [1]: 0.86
- RLU [2]: 1.02

Compound: COc1ccc(-c2nc(CN([C@@H](C(=O)O)C(C)C)S(=O)(=O)c3ccc(C)cc3)c(C)o2)cc1
- RLU [1]: 1.05
- RLU [2]: 1.12

Compound: COc1ccc(S(=O)(=O)N(Cc2nc(-c3ccccc3)oc2C)[C@@H](C(=O)O)C(C)C)cc1
- RLU [1]: 1.01
- RLU [2]: 1.05

Compound: COC(=O)[C@@H](C(C)C)N(Cc1nc(-c2ccc(OC)cc2)oc1C)S(=O)(=O)c1ccc(C)cc1
- RLU [1]: 1.04
- RLU [2]: 1.06

Compound: CCOC(=O)c1nc(-c2ccc(-c3ccccc3)cc2)oc1C
- EC50 [3]: 1.85 µM
- Activity [4]: Active
- Activity [5]: Active
- inhibition [6]: Active

Compound: Cc1oc(-c2ccccc2)nc1CCl
- RLU [1]: 1.03
- RLU [2]: 1.13

Compound: COc1ccc(S(=O)(=O)N(Cc2nc(-c3ccccc3)oc2C)[C@@H](C(=O)NO)C(C)C)cc1
- RLU [1]: 0.98
- RLU [2]: 1.02

Compound: COC(=O)[C@@H](C(C)C)N(Cc1nc(-c2ccc(OCc3ccccc3)cc2)oc1C)S(=O)(=O)c1ccc(OC)cc1
- RLU [1]: 1.32
- RLU [2]: 1.58

Compound: Cc1ccc(S(=O)(=O)N(Cc2nc(-c3ccc(Cl)cc3)oc2C)[C@@H](C(=O)O)C(C)C)cc1
- RLU [1]: 1.03
- RLU [2]: 1.14

Compound: COc1ccc(S(=O)(=O)N(Cc2nc(-c3ccc(Cl)cc3)oc2C)[C@@H](C(=O)O)C(C)C)cc1
- RLU [1]: 0.97
- RLU [2]: 1.06

Compound: Cc1oc(-c2ccc(OCc3ccccc3)cc2)nc1CCl
- RLU [1]: 2.01
- RLU [2]: 4.77

Compound: COc1ccc(-c2nc(CCl)c(C)o2)cc1
- RLU [1]: 1.05
- RLU [2]: 1.12

Compound: COc1ccc(S(=O)(=O)N(Cc2nc(-c3ccc(OCc4ccccc4)cc3)oc2C)[C@@H](C(=O)O)C(C)C)cc1
- RLU [1]: 1.65
- RLU [2]: 2.47

Compound: COc1ccc(S(=O)(=O)N(Cc2nc(-c3cc(OC)c(OC)c(OC)c3)oc2C)[C@@H](C(=O)NO)C(C)C)cc1
- RLU [1]: 0.94
- RLU [2]: 1.06

Compound: COc1ccc(-c2nc(CN([C@@H](C(=O)NO)C(C)C)S(=O)(=O)c3ccc(OC)cc3)c(C)o2)cc1
- RLU [1]: 1.02
- RLU [2]: 1.01

Compound: COC(=O)[C@@H](C(C)C)N(Cc1nc(-c2ccccc2)oc1C)S(=O)(=O)c1ccc(OC)cc1
- RLU [1]: 1.09
- RLU [2]: 0.96

Compound: CCOC(=O)c1nc(-c2ccc(C)cc2)oc1C
- EC50 [3]: 2.99 µM
- Activity [4]: Active
- Activity [5]: Active
- inhibition [6]: Active

Compound: CCOC(=O)c1nc(-c2ccc(OC)c(OC)c2)oc1C
- RLU [1]: 1.17
- RLU [2]: 1.35

Compound: COC(=O)[C@H](NS(=O)(=O)c1ccc(C)cc1)C(C)C
- RLU [1]: 1.03
- RLU [2]: 1.04

Compound: CCOC(=O)c1nc(-c2ccccc2)oc1C
- RLU [1]: 1.07
- RLU [2]: 1.14

Compound: COc1ccc(-c2nc(CN([C@@H](C(=O)O)C(C)C)S(=O)(=O)c3ccc(C)cc3)c(C)o2)cc1OC
- RLU [1]: 0.97
- RLU [2]: 0.98

Compound: COC(=O)[C@@H](C(C)C)N(Cc1nc(-c2ccc(OC)c(OC)c2)oc1C)S(=O)(=O)c1ccc(C)cc1
- RLU [1]: 0.95
- RLU [2]: 1.08

Compound: CCOC(=O)c1nc(-c2ccc(Cl)cc2)oc1C
- EC50 [3]: 7.34 µM

Compound: COc1ccc(S(=O)(=O)N(Cc2nc(-c3cc(OC)c(OC)c(OC)c3)oc2C)[C@@H](C(=O)O)C(C)C)cc1
- RLU [1]: 1.02
- RLU [2]: 1.08

Compound: COc1ccc(S(=O)(=O)N(Cc2nc(-c3ccc([N+](=O)[O-])cc3)oc2C)[C@@H](C(=O)O)C(C)C)cc1
- RLU [1]: 1.02
- RLU [2]: 1.17

Compound: Cc1oc(-c2ccc(-c3ccccc3)cc2)nc1C(=O)OCCO
- EC50 [3]: 7.44 µM
- Activity [4]: Active
- Activity [5]: Active
- inhibition [6]: Active

Compound: COc1ccc(-c2nc(CCl)c(C)o2)cc1OC
- RLU [1]: 1.06
- RLU [2]: 1.3

Compound: Cc1oc(-c2ccc(Cl)cc2)nc1CCl
- RLU [1]: 1.11
- RLU [2]: 1.22

Compound: COc1cc(-c2nc(CCl)c(C)o2)cc(OC)c1OC
- RLU [1]: 2.01
- RLU [2]: 1.09

Compound: COC(=O)[C@@H](C(C)C)N(Cc1nc(-c2ccc(OC)cc2)oc1C)S(=O)(=O)c1ccc(OC)cc1
- RLU [1]: 1.03
- RLU [2]: 0.99

Compound: COC(=O)[C@@H](C(C)C)N(Cc1nc(-c2ccc(OC)c(OC)c2)oc1C)S(=O)(=O)c1ccc(OC)cc1
- RLU [1]: 0.95
- RLU [2]: 1.06
